From patent US10105331B2, “Substituted aromatic compounds and pharmaceutical compositions for the prevention and treatment of diabetes” (PROMETIC PHARMA SMT LIMITED, priority 2014, dated 2018)
“And” between values parts separate entries of the source, which are not always exact repeats. Equal entries are not always repeated.

Columns and labels:
[1] = tested on: β-TC-6 cells; experiment: Glucose-induced insulin secretion by β-TC-6 cells (insulin ELISA of supernatants); format: cell-based; conditions: for Insulin: glucose-induced insulin secretion by β-TC-6 cells, stimulation of 11 mM glucose, control 53; for % Control (insulin secretion, individual values) / Average % Control (insulin secretion): β-TC-6 cells
Method: β-TC-6 cells where used to determine if compounds according to the present invention were able to induce the production of insulin with or without stimulation with glucose. Briefly, β-TC-6 cells (200,000 cells/ml) were incubated in DMEM media and 15% heat inactivated serum in presence of absence of glucose (0.8M) with/without Compound I for 30 minutes and further incubated for 2 hours with a solution of Krebs containing 2.5, 11 and 25 mM glucose. Supernatants were collected and used for the detection of insulin (ELISA) performed as recommended by the supplier.

[2] = tested on: uninephrectomized db/db mice; experiment: Blood triglycerides level in serum of uninephrectomized db/db mice; format: in vivo; conditions: 10 or 50 mg/kg
Method: (§1) Male Lepr db (db/db) and age- and sex-matched control mice with the same genetic background (C57BL/6) were used. Animals were randomized using blood sugar measurement (5-hours starved) at week 6 and uninephrectomy (removal of right kidney) was performed. Sham animals (C57BL/6) underwent exposition of the right kidney. Animals that underwent the sham operation were given vehicle (saline) and were used as negative controls. C57BL/6 mice that were uninephrectomized were given vehicle and were used as positive controls. Db/db mice were treated with oral administration of compound I at 10 and 50 mg/kg per day for 105 days. Serum glucose was measured every two to four weeks.
It is known that blood triglycerides is often associated with diabetes. High triglyceride levels in the blood tend to coexist with low levels of HDL (“good”) cholesterol, contributing to a condition called diabetic dyslipidemia. It is also known that a combination of high triglycerides, low HDL and central obesity are the hallmarks of the metabolic syndrome, which occurs in a majority people with type 2 diabetes.

[3] = tested on: uninephrectomized db/db mice; experiment: Diabetic mouse (db/db) model, uninephrectomized: blood glucose, insulin, glucose/insulin ratio, islet insulin staining; format: in vivo; conditions: for blood glucose level: 105 days
Method: as §1

[4] = glucose 11 mM, Compound I 40 μM
[5] = glucose 11 mM, Compound I 80 μM
[6] = 50 mg/kg per day oral, NX db/db mice
[7] = uninephrectomized db/db mice, dose not stated in legend

Q: For `CCCCCCc1cc(CCCCCC)cc(CC(=O)[O-])c1.[Na+]` [Compound II, Sodium Salt of 2-(3,5-Dihexylphenyl)acetic acid], which Insulin [1] is on record?
A: 123 ng/mL

Q: Which Insulin [1] does the source give for `CCC/C=C/c1cc(/C=C/CCC)cc(CC(=O)[O-])c1.[Na+]` [Compound X, Sodium 2-[3,5-Di[(E)-Pent-1-enyl]phenyl]acetate] here?
A: 102 ng/mL

Q: With `CCCCCc1cc(CC(=O)[O-])cc(CCCCC)c1F.[Na+]` [Compound VIII, Sodium Salt of 2-(4-Fluoro-3,5-dipentylphenyl)acetic acid] as the molecule, how does the Insulin [1] read?
A: 64 ng/mL

Q: For `CCCCCc1cc(CCCCC)c(O)c(CC(=O)[O-])c1.[Na+]` [Compound III, Sodium Salt of 2-(2-Hydroxy-3,5-dipentylphenyl)acetic acid], which Insulin [1] is on record?
A: 109 ng/mL

Q: With `CCCCCc1cc(CCCCC)cc(CC(=O)[O-])c1.[Na+]` [Compound I, Sodium 2-[3,5-Dipentylphenyl]acetate] as the molecule, how does the “% Control (insulin secretion, individual values)” value [1, 4] read?
A: 195.41 % Control and 187.16 % Control and 135.78 % Control and 149.35 % Control and 151.88 % Control and 143.13 % Control

Q: And the “Average % Control (insulin secretion)” value [1, 4]?
A: 160.45 % Control

Q: And the “% Control (insulin secretion, individual values)” value [1, 5]?
A: 192.66 % Control and 174.31 % Control and 203.67 % Control and 145.51 % Control and 129.29 % Control and 200.78 % Control

Q: What about the “Average % Control (insulin secretion)” value [1, 5] of the same molecule?
A: 174.37 % Control

Q: And the Insulin [1]?
A: 76 ng/mL

Q: What about the “% Control (insulin secretion, individual values)” value ([1]; no glucose, Compound I 40 μM) of the same molecule?
A: 53.76 % Control and 86.02 % Control and 47.31 % Control and 155.22 % Control and 135.63 % Control and 130.81 % Control

Q: What about the “Average % Control (insulin secretion)” value ([1]; no glucose, Compound I 40 μM) of the same molecule?
A: 101.46 % Control

Q: And the “% Control (insulin secretion, individual values)” value ([1]; no glucose, Compound I 80 μM)?
A: 79.57 % Control and 38.71 % Control and 70.97 % Control and 123.28 % Control and 114.63 % Control and 177.33 % Control

Q: What about the “Average % Control (insulin secretion)” value ([1]; no glucose, Compound I 80 μM) of the same molecule?
A: 100.75 % Control

Q: And the “glucose-induced insulin production in β-TC-6 cells” value ([1]; with or without glucose)?
A: increased with Compound I in presence of glucose only

Q: And the melting point?
A: 225 to 230 °C

Q: And the “blood triglyceride level in serum” value [2]?
A: reduced the blood triglyceride level

Q: And the blood glucose level ([3]; 10 mg/kg per day oral, compared to NX db/db)?
A: reduces blood glucose compare to NX db/db but stay stable over time

Q: And the insulin level ([3]; 10 mg/kg per day oral, NX db/db mice)?
A: keeps a high insulin level (stabilization compare to Day 0)

Q: And the blood glucose level [3, 6]?
A: induces a significant decrease in blood glucose to a normal level

Q: And the insulin level [3, 6]?
A: reduces the insulin level close to a normal level

Q: And the “histoimmunostaining of insulin in the pancreatic islets” value ([3]; both concentrations (10 or 50 mg/kg), db/db Nx mice)?
A: reverses the loss of insulin detection

Q: And the “glucose/insulin ratio (insulin resistance)” value ([3]; day 33, uninephrectomized db/db mice)?
A: reduces the glucose/insulin ratio

Q: What about the “glucose/insulin ratio (insulin resistance)” value ([3]; day 105, uninephrectomized db/db mice) of the same molecule?
A: reduces the glucose/insulin ratio

Q: And the “blood glucose level (FIG. 1 legend)” value [3, 7]?
A: reduces blood glucose level down to normal level

Q: What about the “insulin secretion (FIG. 2 legend)” value [3, 7] of the same molecule?
A: reverses the fall of insulin secretion

Q: With `CCCC/C=C/c1cc(/C=C/CCCC)cc(CC(=O)[O-])c1.[Na+]` [Compound XII, Sodium Salt of 2-(3,5-Di((E)-hex-1-enyl)phenyl)acetic acid] as the molecule, how does the Insulin [1] read?
A: 70 ng/mL

Q: Which Insulin [1] does the source give for `CCCCCCc1cc(CC(=O)[O-])cc(CCCCCC)c1O.[Na+]` [Compound VI, Sodium Salt of 2-(3,5-Dihexyl-4-hydroxyphenyl)acetic acid] here?
A: 67 ng/mL

Q: With `CCCCCc1cc(CC(=O)[O-])cc(CCCCC)c1O.[Na+]` [Compound V, Sodium Salt of 2-(4-Hydroxy-3,5-dipentylphenyl)acetic acid] as the molecule, how does the Insulin [1] read?
A: 59 ng/mL

Q: Which Insulin [1] does the source give for `CCCCCc1cc(CCCCC)cc(CCC(=O)[O-])c1.[Na+]` [Compound XI, Sodium 3-[3,5-Dipentylphenyl]propanoate] here?
A: 89 ng/mL

Q: With `CCCCCc1cc(CCCCC)c(Cc2ccccc2)c(CC(=O)[O-])c1.[Na+]` [Compound IX, Sodium Salt of 2-(2-Benzyl-3,5-dipentylphenyl)acetic Acid] as the molecule, how does the Insulin [1] read?
A: 110 ng/mL

Q: Which Insulin [1] does the source give for `CCCCCCc1cc(CCCCCC)c(O)c(CC(=O)[O-])c1.[Na+]` [Compound IV, Sodium Salt of 2-(3,5-Dihexyl-2-hydroxyphenyl)acetic acid] here?
A: 147 ng/mL
